These results are taken from paper doi:10.1101/2023.11.21.567704v1 (biorxiv, 2023).

The target in assay [1] is T1, MtbFolB (Mycobacterium tuberculosis, UniProt P9WNC5).
T1 sequence (P9WNC5 1-133): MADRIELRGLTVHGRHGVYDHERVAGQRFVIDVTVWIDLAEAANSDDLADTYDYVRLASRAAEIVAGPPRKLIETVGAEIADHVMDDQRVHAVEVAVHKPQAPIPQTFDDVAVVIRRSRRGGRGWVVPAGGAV
Kind of assay: biochemical. As to conditions: read-out: % inhibition.

Assay [2] concerns the target T1, MtbFolB. Kind of assay: biochemical.
In assay [3] the target is T1, MtbFolB. Briefly: end-point fluorescence assay. Type of assay: biochemical.
In assay [4] the target is T1, MtbFolB. Briefly: primary screen, end-point fluorescence assay, 384-well, […] h. Particulars: 5 µM DHNP, 14 nM enzyme, pH 8.0, 24 °C, 1% DMSO. Type of assay: biochemical.

As to `COc1ccc(CC(=O)n2c(C)cc(=O)n2-c2ccccc2)cc1` [compound 16, 16], the inhibition at 20 µM on MtbFolB [1] is 35.1%.

Consider `Cc1ccc(-n2c(=O)cc(C)n2C(=O)C(C)Oc2ccccc2)cc1C` (stereo not drawn) [compound 22, 22], for which the IC50 against MtbFolB [2] was found to be 172 ± 14 µM; at MtbFolB [3] it was 13.5 µM. For the same molecule, the inhibition at 20 µM at MtbFolB [1] is 29.2%. On the same counts, the results for `Cc1cc(=O)n(-c2ccccc2)n1C(=O)Cc1cccs1` [compound 3, 3] are 250 ± 30 µM, 30.1 µM and 52.5%.

At MtbFolB [3], `O=S(=O)(Nc1ccc(N2CCN(S(=O)(=O)c3ccc(Br)s3)CC2)cc1)c1ccc(Br)s1` [compound 39, 39] came in with an IC50 of 10.6 µM. For `O=C(CCC(=O)c1ccc(-c2ccccc2)cc1)Nc1nncs1` [compound 2], on MtbFolB [1], the inhibition at 20 µM is 53.2%. At MtbFolB [3], `Cc1cc(=O)n(-c2ccccc2)n1C(=O)c1ccc(Cl)cc1` [compound 21, 21] registered an IC50 of 34.4 µM. Moreover, the inhibition at 20 µM on MtbFolB [1] was 29.8%. `O=C(CCC(=O)c1ccc(-c2ccccc2)cc1)Nc1nncs1` [compound 2, 2] gave an IC50 on MtbFolB [3] of 8 µM. The same measure, in the same setting: in the case of `CCc1cc(N2CCC[C@@H](O)C2)ccc1NS(=O)(=O)c1ccc(Br)s1` [compound 35, 35] it was 29.1 µM.

Consider `O=S(=O)(Nc1ccc(-n2ccnc2)cc1)c1ccc(Br)s1` [compound 33, 33], for which, on MtbFolB [3], the IC50 is greater than 100 µM. Still for that read-out and setting: to `CC(C)c1ccc(C(C)NS(=O)(=O)c2ccc(Br)s2)cc1` (stereo not drawn) [compound 37, 37] belongs greater than 100 µM; to `CN(C)c1ccc(NS(=O)(=O)c2ccc3ccn(C)c3c2)cc1` [compound 24, 24], greater than 100 µM. As for `O=C(Nc1nc2ccccc2n1Cc1ccc(F)cc1)C1CCC(F)(F)CC1` [compound 14], the inhibition at 20 µM at MtbFolB [1] stood at 36.6%.

On to `CC(=O)Nc1ccc(NS(=O)(=O)c2ccc(Br)s2)cc1` [compound 34, 34], for which the IC50 at MtbFolB [3] is greater than 100 µM.

At MtbFolB [3], `O=C(Nc1nc2ccccc2n1Cc1ccc(F)cc1)C1CCC(F)(F)CC1` [compound 14, 14] displayed an IC50 of 17.2 µM. As to `Cc1ccc(-n2c(=O)cc(C)n2C(=O)Cc2cccs2)cc1C` [compound 9, 9], on MtbFolB [2], the midpoint of inhibition, the IC50, lay at 434 ± 64 µM. For the same molecule, at MtbFolB [1], the inhibition at 20 µM was found to be 40.8%.

For the molecule `Cc1cc(=O)n(-c2ccccc2)n1C(=O)C(C)Oc1ccccc1` (stereo not drawn) [compound 20, 20], the IC50 turned out to be 362 ± 82 µM against MtbFolB [2] and 23.1 µM on MtbFolB [3]. Also, on MtbFolB [1], the inhibition at 20 µM came to 29.9%. In turn, `O=S(=O)(NCc1ccc(N2CCC(c3ccc(OC(F)(F)F)cc3)CC2)cc1)c1ccc(Br)s1` [compound 38, 38] returned an IC50 on MtbFolB [3] greater than 100 µM. Same read-out and setting: in the case of `CN(C)c1ccc(NS(=O)(=O)c2cnn(C)c2)cc1` [compound 25, 25] it was 6.8 µM; in that of `CN(C)c1ccc(NS(=O)(=O)c2ccc(-c3ccc(C(F)(F)F)cc3)cc2)cc1` [compound 29, 29], greater than 100 µM; in that of `O=S(=O)(Nc1ccc(N2CCCCC2)cc1)c1ccc(Br)s1` [compound 32, 32], 11.3 µM. `Cc1noc(C)c1S(=O)(=O)Nc1ccc(N(C)C)cc1` [compound 27, 27] showed an IC50 on MtbFolB [3] of 9.2 µM. `O=C1NCN(c2ccccc2)C12CCN(CC(O)COc1ccccc1C1CCCC1)CC2` (stereo not drawn) [compound 17, 17]: the “% inhibition at 20 μM” value at MtbFolB [4] is given as 32.9%.
